We go through one compound from US20130210786A1, “TREATMENT OF L-DOPA, DOPAMINE AGONIST AND/OR DOPAMINE ENHANCER INDUCED DISORDERS” (priority 2010, published 2013).

For data set [1], the system named is MPTP-lesioned macaques. Kind of data set: L-DOPA induced dyskinesia (LID) in MPTP-lesioned macaques, monkey dyskinesia rating scale. As to conditions: group 1 (L-DOPA+vehicle); challenge with L-DOPA 12, 20, 30 or 40 mg/kg p.o. The data set is classed as in vivo, Macaca fascicularis. On the procedure:
Ten female cynomolgus monkeys (macaques) (Macaca fascicularis, 3.0-4.5 kg, 4-6 years old) were acclimatised to the experimental setting and procedures for 3 months and baseline behaviour was assessed in all animals. The macaques received MPTP (0.2 mg/kg/day, s.c.) until moderate-marked, stable, parkinsonian symptoms developed.
Following stabilisation of parkinsonian disability, the macaques were administered L-DOPA (Madopar, 20 mg/kg b.i.d., p.o.) for 19 weeks before being administered L-DOPA+vehicle (hydroxypropylmethylcellulose, HPMC, 0.5% w/v containing Tween 80, 0.2% v/v, group 1, n=5) or L-DOPA+smilagenin (20 mg/kg/day, p.o., group 2, n=5) for a further 18 weeks. Smilagenin was then washed out for 10 weeks and all the macaques received only L-DOPA twice daily over this 10 week period.
Following the 10 week washout, the macaques were challenged with L-DOPA (6, 12, 20, 30 or 40 mg/kg, p.o.) or vehicle and the level of dyskinesia over the subsequent 6 h period was assessed by a neurologist blinded to treatment using a monkey dyskinesia rating scale. […] Each macaque received a challenge once every 3 days and received every challenge (vehicle and L-DOPA, 6, 12, 20, 30 or 40 mg/kg) in a randomised order over the course of the experiment. On the days between challenges, the macaques received L-DOPA (20 mg/kg, b.i.d., p.o.) as normal.
The MPTP-lesioned and L-DOPA treated macaques used in this experiment provide an accepted model for L-DOPA-induced dyskinesia.

Data set [2] has as its system MPTP-lesioned macaques. The experiment in a line: On-time (time without bradykinesia) in MPTP-lesioned macaques after L-DOPA challenge. As to conditions: both groups; L-DOPA challenge 6-40 mg/kg p.o. The data set is classed as in vivo, Macaca fascicularis.
Description: Analysis was performed using a two-way ANOVA with group and L-DOPA dose as factors.

With `N[C@@H](Cc1ccc(O)c(O)c1)C(=O)O` [L-DOPA, L-3,4-dihydroxyphenylalanine], in the data set on MPTP-lesioned macaques [1], the “Dyskinesia following challenge with L-DOPA” value was “dose-dependent dyskinesia up to the 30 mg/kg dose”. Further, the “Effect of L-DOPA on amount of on-time” value in the data set with MPTP-lesioned macaques [2] was “increased the amount of on-time”.
